Test [1] has as its target T1, AgDAE (Arthrobacter globiformis, UniProt A0A1L7NQ96).
T1 sequence (A0A1L7NQ96 1-289): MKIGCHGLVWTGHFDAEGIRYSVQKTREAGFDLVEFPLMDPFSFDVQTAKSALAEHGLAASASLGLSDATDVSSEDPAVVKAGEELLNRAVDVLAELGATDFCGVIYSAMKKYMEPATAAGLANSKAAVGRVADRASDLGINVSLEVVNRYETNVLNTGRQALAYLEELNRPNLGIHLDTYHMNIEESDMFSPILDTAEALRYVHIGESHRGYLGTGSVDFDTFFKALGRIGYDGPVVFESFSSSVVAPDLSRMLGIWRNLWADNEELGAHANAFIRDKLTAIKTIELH
The class given is biochemical. To be noted: 50 °C, 50 mM sodium phosphate pH 8.0, 2 mM MgSO4; read-out: Allulose → Fructose / K m.

Test [2] concerns the target T1, AgDAE. Type of test: biochemical. The settings on record: 50 °C, 50 mM sodium phosphate pH 8.0, 2 mM MgSO4; read-out: Fructose → Allulose / K m.

Like-named read-outs stand apart in the source and are kept apart here.

As for `OCC1(O)OC[C@@H](O)[C@@H](O)[C@H]1O` (stereo partly drawn) [D-allulose], the Km on AgDAE [1] was determined as 11.7 ± 0.7 mM.
With `OCC1(O)OC[C@@H](O)[C@@H](O)[C@@H]1O` (stereo partly drawn) [D-fructose], the Km at AgDAE [2] was 21.1 ± 5.6 mM.
